{"source": "ChEMBL document CHEMBL5303711", "about": "“ECBD screening data for assay EOS300108” (2023)", "note": "Activity calls are given as the source filed them. No rule for the calls is given here.", "data": [{"test": "Cytotoxicity activity against human HepG2 cells assessed by CellTiter-Glo luminescent cell viability assay.", "assay_type": "toxicity, cell-based", "parameters": "assay stage confirmatory assay, source tissue liver", "details": "HepG2 cells, read-out: IC50 relative", "values": [{"smiles": "CCN1CCN(CCNC(=O)c2cn3ccnc(-c4ccc(C)cc4)c3n2)CC1", "CC50": "29 µM (inactive)"}, {"smiles": "CC(C)(C)c1ccccc1Oc1ncccc1NC(=O)Nc1ccc(OC(F)(F)F)cc1", "CC50": "7.9 µM (active)"}, {"smiles": "CCOC(=O)CCNc1cc(N2CCc3ccccc3CC2)nc(-c2ccccn2)n1", "CC50": "7.5 µM (active)"}, {"smiles": "Nc1nc(Nc2ccc3c(c2)CC[C@@H](N2CCCC2)CC3)nn1-c1cc2c(nn1)-c1ccccc1CCC2", "note": "[BEMCENTINIB]", "CC50": "1.2 µM (active)"}, {"smiles": "Cc1noc2ncnc(N3CCC(C(=O)N4CCN(c5cccc(Cl)c5)CC4)CC3)c12", "CC50": "9.6 µM (active)"}, {"smiles": "COc1cc2ncnc(-n3nc(-c4ccccn4)nc3N)c2cc1OC", "CC50": "1.5 µM (active)"}, {"smiles": "COc1ccc2cc3[n+](cc2c1OC)CCc1cc2c(cc1-3)OCO2", "note": "[BERBERINE CHLORIDE]", "CC50": "14.4 µM (inactive)"}, {"smiles": "CN(C)S(=O)(=O)c1cccc(NC(=O)c2ccc(S(=O)(=O)N(C)c3ccccc3)cc2)c1", "CC50": "2.6 µM (active)"}, {"smiles": "Fc1ccc2[nH]c(CCNc3ncc(Br)cn3)nc2c1", "CC50": "5.1 µM (active)"}, {"smiles": "Cc1nc2ccccc2nc1CSCCCS(=O)(=O)C(C)C", "CC50": "0.9 µM (active)"}, {"smiles": "Cn1cc(-c2nc(C(=O)Nc3cccnc3-n3cncn3)cs2)cn1", "CC50": "2 µM (active)"}, {"smiles": "CC(C)n1ncnc1NC(=O)c1cccc(C(F)(F)F)c1O", "CC50": "5.6 µM (active)"}, {"smiles": "COc1ccc2c(c1)c(C1=C(c3c[nH]c4ccccc34)C(=O)NC1=O)cn2CCCN(C)C", "CC50": "4.7 µM (active)"}, {"smiles": "CC(C)c1cnn2c(NCc3ccccc3)cc(NC[C@H]3CCNC[C@@H]3O)nc12", "CC50": "0.8 µM (active)"}, {"smiles": "O=C(c1csc(S(=O)(=O)N2CCC(C(=O)N3CCc4ccccc43)CC2)c1)N1CCCCCC1", "CC50": "10.6 µM (inactive)"}, {"smiles": "CN(C)S(=O)(=O)c1cccc(-n2sc3ccccc3c2=O)c1", "CC50": "9.3 µM (active)"}, {"smiles": "COc1cccc(Cn2c(=O)c3ccnn3c3ccc(C(=O)NCCN(C)C)cc32)c1", "CC50": "12.3 µM (active)"}, {"smiles": "CC(=O)N1c2ccc(-c3ccc(C(=O)O)cc3)cc2[C@H](Nc2ccc(Cl)cc2)C[C@@H]1C", "CC50": "0.9 µM (active)"}, {"smiles": "Cc1cccn2c(CC(=O)N3CCOc4ccc(Cl)cc4C3)cnc12", "CC50": "4.9 µM (active)"}, {"smiles": "O=C(NCc1ccc(-n2ccnc2)nc1)[C@@H]1CC(c2ccccc2)=NO1", "CC50": "6.3 µM (active)"}, {"smiles": "Cc1cc(N(C)C)nc(N2CCN(C(=O)c3ccc(C(C)(C)C)cc3)CC2)n1", "CC50": "5.1 µM (active)"}, {"smiles": "CCCCc1c(C)[nH]n(-c2nc3ccccc3[nH]2)c1=O", "CC50": "8.9 µM (active)"}, {"smiles": "COC(=O)N[C@@H](C)CNc1nccc(-c2cn(C(C)C)nc2-c2cc(Cl)cc(NS(C)(=O)=O)c2F)n1", "note": "[ENCORAFENIB]", "CC50": "0.9 µM (active)"}, {"smiles": "CN(C)CCNC(=O)Cn1c(-c2ccccc2)nn(-c2ccc(Cl)cc2)c1=O", "CC50": "6.5 µM (active)"}, {"smiles": "Clc1ccc(OCC2CCCNC2)c2ccccc12", "note": "(configuration not stated)", "CC50": "2 µM (active)"}, {"smiles": "O=C1C=C(N(CCO)Cc2ccccc2)c2ccccc2C1=O", "CC50": "4.4 µM (active)"}, {"smiles": "Cc1cc(F)ccc1N1CCC(NCC(O)c2cccc(O)c2)CC1", "note": "(configuration not stated)", "CC50": "10.1 µM (active)"}, {"smiles": "c1cc(-c2cnn3cc(-c4ccc(N5CCNCC5)cc4)cnc23)c2cccnc2c1", "CC50": "0.9 µM (active)"}, {"smiles": "CN1CCCN(C(=O)c2cccc(-c3ccc(/C=C4/C(=O)Nc5ccc(Cl)cc54)o3)c2)CC1", "CC50": "0.6 µM (active)"}, {"smiles": "Cc1ccc(C(=O)N(CCCN)C(c2oc3cc(Cl)ccc3c(=O)c2Cc2ccccc2)C(C)C)cc1", "note": "(configuration not stated)", "CC50": "1.4 µM (active)"}, {"smiles": "Cc1cc2c(cc1S(=O)(=O)Nc1cccc(F)c1)OCC(=O)N2", "CC50": "28.3 µM (inactive)"}, {"smiles": "CC(C)NC(=O)N1CC(Oc2ccc(-c3noc(-c4cccnc4)n3)cc2)C1", "CC50": "3.4 µM (active)"}, {"smiles": "FC(F)c1nc2ccccc2n1-c1nc(N2CCOCC2)nc(N2CCOCC2)n1", "note": "[ZSTK-474]", "CC50": "1.2 µM (active)"}, {"smiles": "N#Cc1ccc(NC(=O)c2cccc3ncccc23)cc1", "CC50": "10.8 µM (inactive)"}, {"smiles": "COCCCN[C@H]1CS(=O)(=O)C[C@@H]1S(=O)(=O)c1ccc(Cl)cc1", "CC50": "16.7 µM (active)"}, {"smiles": "CNC(=O)c1ccc(Nc2ncc(C(F)(F)F)c(NCc3nccnc3N(C)S(C)(=O)=O)n2)cc1", "note": "[DEFACTINIB]", "CC50": "1.4 µM (inactive)"}, {"smiles": "O=c1cc(-c2ccc(O)c(O)c2)oc2cc(O)cc(O)c12", "note": "[LUTEOLIN]", "CC50": "9 µM (active)"}, {"smiles": "CN1CCC(Nc2nc(Nc3ccc(Oc4ccccc4)cc3)c3c(=O)[nH]cc(Br)c3n2)CC1", "note": "[DENFIVONTINIB]", "CC50": "0.4 µM (active)"}, {"smiles": "COc1ccc([C@@H](O)c2cc(-c3ncnc4cc(N5CCOCC5)ccc34)c(F)cc2Cl)nn1", "note": "[NEDISERTIB]", "CC50": "3.4 µM (active)"}, {"smiles": "Cc1cnccc1NCCNC1CCN(c2ccc(F)c(F)c2)CC1", "CC50": "1.7 µM (active)"}, {"smiles": "O=C(Nc1n[nH]c(C2CC2)n1)C1CC(=O)N(c2ccc(Br)cc2)C1", "note": "(configuration not stated)", "CC50": "1.8 µM (active)"}, {"smiles": "N#Cc1ccc2[nH]c(O)c(-c3ccc(CN4CCOCC4)cn3)c2c1", "note": "[AZD-1080]", "CC50": "7.3 µM (active)"}, {"smiles": "O=C(Nc1ccc(Cn2cnc3ccccc32)cc1)c1ccc(=O)[nH]n1", "CC50": "9.7 µM (inactive)"}, {"smiles": "C#CCC(Cc1cnc2nc(N)nc(N)c2n1)c1ccc(C(=O)N[C@@H](CCC(=O)O)C(=O)O)cc1", "note": "(some centres not stated) [PRALATREXATE]", "CC50": "< 0.1 µM (active)"}, {"smiles": "COc1cc2c(cc1OC(C)C)[C@H](c1ccc(Cl)cc1)N(c1ccc(N(C)C[C@H]3CC[C@H](N4CCN(C)C(=O)C4)CC3)cc1)C(=O)C2", "note": "[CGM-097]", "CC50": "6.3 µM (active)"}, {"smiles": "C[C@@H](Oc1cc(-n2cnc3ccc(CN4CCN(C)CC4)cc32)sc1C(N)=O)c1ccccc1C(F)(F)F", "note": "[GSK-461364]", "CC50": "3.7 µM (active)"}, {"smiles": "COC(=O)C[C@](O)(CCCC(C)(C)O)C(=O)O[C@@H]1C(OC)=C[C@]23CCCN2CCc2cc4c(cc2[C@H]13)OCO4", "note": "[OMACETAXINE MEPESUCCINATE]", "CC50": "0.2 µM (active)"}, {"smiles": "Cc1cccc(NC(=O)C2CCN(S(=O)(=O)c3cn(C(C)C)cn3)CC2)c1", "CC50": "8.8 µM (inactive)"}, {"smiles": "CCN1CCN(c2ncc(C(=O)Nc3ccc(Br)cc3)c(C)n2)CC1", "CC50": "13.8 µM (inactive)"}, {"smiles": "COC(=O)C[C@@H]1N=C(c2ccc(Cl)cc2)c2c(sc(C)c2C)-n2c(C)nnc21", "CC50": "0.1 µM (active)"}, {"smiles": "Cc1nc(-c2ccccn2)[nH]c(=O)c1CC(=O)N1CCC[C@H]1C1CCCCC1", "CC50": "6.7 µM (active)"}, {"smiles": "COc1ccc(-c2cn3nc(N4CCC(C(=O)NCCCN5CCN(C)CC5)CC4)sc3n2)cc1", "CC50": "4.1 µM (active)"}, {"smiles": "Cc1cn(CCN2CCN(c3ccccc3-c3cc(C#N)cc(C(=O)NCCCN4CCCC4)c3)CC2)c2ccccc12", "CC50": "1.4 µM (active)"}, {"smiles": "Cc1cc(NC(=O)c2cnn(-c3ccccc3)n2)cc(N2CCN(C)CC2)c1", "CC50": "6.1 µM (active)"}, {"smiles": "CC(C)NC(=O)[C@H]1CC[C@@H](n2/c(=N/C(=O)c3ccc(F)cc3)[nH]c3ccc(CN4CCC(C(C)(C)O)CC4)cc32)CC1", "CC50": "0.8 µM (active)"}, {"smiles": "CC(C)c1ccc(S(=O)(=O)/N=C2/C=C(Sc3nc[nH]n3)C(=O)c3ccccc32)cc1", "CC50": "5.8 µM (active)"}, {"smiles": "COc1ccc(-c2cc3c(C)nc(N)nc3n([C@H]3CC[C@H](OCCO)CC3)c2=O)cn1", "note": "[PF-04691502]", "CC50": "0.6 µM (active)"}, {"smiles": "CCN1CCN(CCCNC(=O)c2cc3c(=O)n(C)c4ccccc4c3s2)CC1", "CC50": "4.1 µM (active)"}, {"smiles": "CCOc1cc(C(=O)N[C@H]2CCN(C3CCN(C)CC3)C2)ccc1C", "CC50": "15.9 µM (inactive)"}, {"smiles": "Cc1ccc2nccc(N3CCCC(CCC(=O)N(C)C)C3)c2c1", "note": "(configuration not stated)", "CC50": "8.3 µM (active)"}, {"smiles": "COc1cc(OC)cc(C(=O)N2CCN(Cn3ncc(Cl)c(Cl)c3=O)CC2)c1", "CC50": "23.4 µM (inactive)"}, {"smiles": "COc1ccc(Cl)cc1CNCC1CCN(C[C@H](C)O)CC1", "CC50": "10.2 µM (active)"}]}]}
